Test results published in PubChem BioAssay (NCI).
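Step 1: Grow cells in 96-well plates. Step 2: Expose to compound for 48 hours at 5 concentrations. Step 3: Interpolate endpoints linearly; if unreached, use highest concentration. The concentration for full growth arrest is given as TGI.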

Key:
Assay in all cases: NCI-60 cell line screen, 48 h
NCI-H522 lung = tested on: NCI-H522 lung
HT29 colon = tested on: HT29 colon
EKVX NSCLC = tested on: EKVX NSCLC
A549 NSCLC = tested on: A549 NSCLC
MDA-N = tested on: MDA-N
UACC-257 melanoma = tested on: UACC-257 melanoma
MDA-MB-435 = tested on: MDA-MB-435
SK-MEL-5 melanoma = tested on: SK-MEL-5 melanoma
SK-MEL-2 melanoma = tested on: SK-MEL-2 melanoma
MDA-MB-231 breast = tested on: MDA-MB-231 breast
SF-268 CNS = tested on: SF-268 CNS
SK-MEL-28 melanoma = tested on: SK-MEL-28 melanoma
K-562 leukemia = tested on: K-562 leukemia
U251 CNS = tested on: U251 CNS
HS 578T breast = tested on: HS 578T breast
MCF7 breast = tested on: MCF7 breast
LOX IMVI melanoma = tested on: LOX IMVI melanoma
MOLT-4 leukemia = tested on: MOLT-4 leukemia
COLO 205 colon = tested on: COLO 205 colon
HOP-92 NSCLC = tested on: HOP-92 NSCLC
DU-145 prostate = tested on: DU-145 prostate
SF-539 CNS = tested on: SF-539 CNS
NCI-H460 lung = tested on: NCI-H460 lung
CAKI-1 renal = tested on: CAKI-1 renal
SNB-75 CNS = tested on: SNB-75 CNS
A498 renal = tested on: A498 renal
PC-3 prostate = tested on: PC-3 prostate
NCI/ADR-RES ovarian = tested on: NCI/ADR-RES ovarian
NCI-H23 lung = tested on: NCI-H23 lung
SW-620 colon = tested on: SW-620 colon
MALME-3M melanoma = tested on: MALME-3M melanoma
KM12 colon = tested on: KM12 colon
TK-10 renal = tested on: TK-10 renal
IGROV1 ovarian = tested on: IGROV1 ovarian
M14 melanoma = tested on: M14 melanoma
UO-31 renal = tested on: UO-31 renal
CCRF-CEM leukemia = tested on: CCRF-CEM leukemia
OVCAR-8 ovarian = tested on: OVCAR-8 ovarian
BT-549 breast = tested on: BT-549 breast
RXF 393 renal = tested on: RXF 393 renal
OVCAR-5 ovarian = tested on: OVCAR-5 ovarian
SNB-19 CNS = tested on: SNB-19 CNS
ACHN renal = tested on: ACHN renal
T-47D breast = tested on: T-47D breast
NCI-H226 lung = tested on: NCI-H226 lung
SN12C renal = tested on: SN12C renal
HCC-2998 colon = tested on: HCC-2998 colon
HOP-62 NSCLC = tested on: HOP-62 NSCLC
OVCAR-3 ovarian = tested on: OVCAR-3 ovarian
RPMI-8226 leukemia = tested on: RPMI-8226 leukemia
HL-60(TB) leukemia = tested on: HL-60(TB) leukemia
SF-295 CNS = tested on: SF-295 CNS
HCT-116 colon = tested on: HCT-116 colon
UACC-62 melanoma = tested on: UACC-62 melanoma
SK-OV-3 ovarian = tested on: SK-OV-3 ovarian
SR leukemia = tested on: SR leukemia
HCT-15 colon = tested on: HCT-15 colon
OVCAR-4 ovarian = tested on: OVCAR-4 ovarian
786-0 renal = tested on: 786-0 renal

O=c1cnn(CCOCP(=O)(O)O)c(=O)[nH]1
TGI (NCI-H522 lung): > 100 µM
TGI (HT29 colon): > 100 µM
TGI (EKVX NSCLC): > 100 µM
TGI (A549 NSCLC): > 100 µM
TGI (MDA-N): > 100 µM
TGI (UACC-257 melanoma): > 100 µM
TGI (MDA-MB-435): > 100 µM
TGI (SK-MEL-5 melanoma): > 100 µM
TGI (SK-MEL-2 melanoma): > 100 µM
TGI (MDA-MB-231 breast): > 100 µM
TGI (SF-268 CNS): > 100 µM
TGI (SK-MEL-28 melanoma): > 100 µM
TGI (K-562 leukemia): > 100 µM
TGI (U251 CNS): > 100 µM
TGI (HS 578T breast): > 100 µM
TGI (MCF7 breast): > 100 µM
TGI (LOX IMVI melanoma): > 100 µM
TGI (MOLT-4 leukemia): > 100 µM
TGI (COLO 205 colon): > 100 µM
TGI (HOP-92 NSCLC): > 100 µM
TGI (DU-145 prostate): > 100 µM
TGI (SF-539 CNS): > 100 µM
TGI (NCI-H460 lung): > 100 µM
TGI (CAKI-1 renal): > 100 µM
TGI (SNB-75 CNS): > 100 µM
TGI (A498 renal): > 100 µM
TGI (PC-3 prostate): > 100 µM
TGI (NCI/ADR-RES ovarian): > 100 µM
TGI (NCI-H23 lung): > 100 µM
TGI (SW-620 colon): > 100 µM
TGI (MALME-3M melanoma): > 100 µM
TGI (KM12 colon): > 100 µM
TGI (TK-10 renal): > 100 µM
TGI (IGROV1 ovarian): > 100 µM
TGI (M14 melanoma): > 100 µM
TGI (UO-31 renal): > 100 µM
TGI (CCRF-CEM leukemia): > 100 µM
TGI (OVCAR-8 ovarian): > 100 µM
TGI (BT-549 breast): > 100 µM
TGI (RXF 393 renal): > 100 µM
TGI (OVCAR-5 ovarian): > 100 µM
TGI (SNB-19 CNS): > 100 µM
TGI (ACHN renal): > 100 µM
TGI (T-47D breast): > 100 µM
TGI (NCI-H226 lung): > 100 µM
TGI (SN12C renal): > 100 µM
TGI (HCC-2998 colon): > 100 µM
TGI (HOP-62 NSCLC): > 100 µM
TGI (OVCAR-3 ovarian): > 100 µM
TGI (RPMI-8226 leukemia): > 100 µM

CC(C)C1N(C)c2ccc(Cl)cc2[C@H]2c3ccccc3CCN12 (some centres undefined)
TGI (NCI-H522 lung): 88.2 µM
TGI (HT29 colon): 90.7 µM
TGI (EKVX NSCLC): > 100 µM
TGI (A549 NSCLC): > 100 µM
TGI (MDA-N): 92 µM
TGI (UACC-257 melanoma): 90.3 µM
TGI (MDA-MB-435): 61.6 µM
TGI (SK-MEL-2 melanoma): 74.1 µM
TGI (HL-60(TB) leukemia): > 100 µM
TGI (MDA-MB-231 breast): 96.2 µM
TGI (SF-268 CNS): > 100 µM
TGI (SF-295 CNS): > 100 µM
TGI (SK-MEL-28 melanoma): > 100 µM
TGI (HCT-116 colon): > 100 µM
TGI (K-562 leukemia): > 100 µM
TGI (U251 CNS): > 100 µM
TGI (HS 578T breast): 82.1 µM
TGI (MCF7 breast): > 100 µM
TGI (LOX IMVI melanoma): 55.7 µM
TGI (MOLT-4 leukemia): > 100 µM
TGI (COLO 205 colon): > 100 µM
TGI (HOP-92 NSCLC): > 100 µM
TGI (DU-145 prostate): > 100 µM
TGI (SF-539 CNS): > 100 µM
TGI (NCI-H460 lung): > 100 µM
TGI (SNB-75 CNS): > 100 µM
TGI (A498 renal): > 100 µM
TGI (UACC-62 melanoma): > 100 µM
TGI (PC-3 prostate): > 100 µM
TGI (NCI/ADR-RES ovarian): > 100 µM
TGI (NCI-H23 lung): > 100 µM
TGI (SW-620 colon): > 100 µM
TGI (KM12 colon): > 100 µM
TGI (TK-10 renal): > 100 µM
TGI (SK-OV-3 ovarian): > 100 µM
TGI (SR leukemia): > 100 µM
TGI (IGROV1 ovarian): > 100 µM
TGI (M14 melanoma): > 100 µM
TGI (UO-31 renal): > 100 µM
TGI (CCRF-CEM leukemia): > 100 µM
TGI (OVCAR-8 ovarian): > 100 µM
TGI (HCT-15 colon): > 100 µM
TGI (BT-549 breast): > 100 µM
TGI (RXF 393 renal): > 100 µM
TGI (OVCAR-5 ovarian): > 100 µM
TGI (SNB-19 CNS): > 100 µM
TGI (ACHN renal): > 100 µM
TGI (OVCAR-4 ovarian): > 100 µM
TGI (786-0 renal): > 100 µM
TGI (NCI-H226 lung): 67.9 µM
TGI (SN12C renal): > 100 µM
TGI (HOP-62 NSCLC): > 100 µM
TGI (OVCAR-3 ovarian): 70.3 µM
TGI (RPMI-8226 leukemia): 79.8 µM
